{"source": "paper PMC6704710", "about": "“Preclinical evaluation of 3D185, a novel potent inhibitor of FGFR1/2/3 and CSF-1R, in FGFR-dependent and macrophage-dominant cancer models” (Journal of Experimental & Clinical Cancer Research : CR, 2019)", "experiment_in_all_cases": "Eurofins kinase panel", "format_in_all_cases": "biochemical", "conditions_in_all_cases": "read-out: Inhibition rate (%)", "key": {"TSSK4(h)": {"target": "T1, TSSK4(h) (Homo sapiens, UniProt Q6SA08)", "T1 construct": "purchased Eurofins (KinaseProfiler)", "T1 sequence (Q6SA08 1-328)": "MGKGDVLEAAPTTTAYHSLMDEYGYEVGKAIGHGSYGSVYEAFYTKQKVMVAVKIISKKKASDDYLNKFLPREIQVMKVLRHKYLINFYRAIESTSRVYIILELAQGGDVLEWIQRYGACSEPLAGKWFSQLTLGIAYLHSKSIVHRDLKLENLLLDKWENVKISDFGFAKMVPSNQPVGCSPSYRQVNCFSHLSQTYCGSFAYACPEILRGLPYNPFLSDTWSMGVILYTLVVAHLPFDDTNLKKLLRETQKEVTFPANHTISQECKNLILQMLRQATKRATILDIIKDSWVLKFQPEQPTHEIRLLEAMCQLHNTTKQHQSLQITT"}, "HIPK1(h)": {"target": "T2, HIPK1(h) (Homo sapiens, UniProt Q86Z02)", "T2 construct": "purchased Eurofins (KinaseProfiler)"}, "NDR2(h)": {"target": "T3, NDR2(h) (Homo sapiens, UniProt Q9Y2H1)", "T3 construct": "purchased Eurofins (KinaseProfiler)", "experimental": "(§1) Active FGFR1–4, VEGFR1, KDR, VEGFR3, PDGFRα and PDGFRβ proteins were purchased from Eurofins (Fremont, United States), and kinase activity was assessed using ELISA, as previously reported. […]. Increasing concentrations of ATP were diluted for the kinase reaction in the ATP competition assay. CSF-1R kinase activity was analyzed using the Z’-LYTE™ Kinase Assay Kit (Thermo Fisher, United States). The assay formats are described in the SelectScreen Kinase Profiling Service Zlyte protocol. IC50 values were calculated by dose-response curve fitting using Prism (Graph Pad)."}, "Pim-2(h)": {"target": "T4, Pim-2(h) (Homo sapiens, UniProt Q9P1W9)", "T4 construct": "purchased Eurofins (KinaseProfiler)", "experimental": "as §1"}, "Lck(h)": {"target": "T5, Lck(h) (Homo sapiens, UniProt P06239)", "T5 construct": "purchased Eurofins (KinaseProfiler)", "experimental": "as §1"}, "GRK5(h)": {"target": "T6, GRK5(h) (Homo sapiens, UniProt P34947)", "T6 construct": "purchased Eurofins (KinaseProfiler)", "experimental": "as §1"}, "PKBγ(h)": {"target": "T7, PKBγ(h) (Homo sapiens, UniProt Q9Y243)", "T7 construct": "purchased Eurofins (KinaseProfiler)", "experimental": "as §1"}, "DYRK1B(h)": {"target": "T8, DYRK1B(h) (Homo sapiens, UniProt Q9Y463)", "T8 construct": "purchased Eurofins (KinaseProfiler)", "experimental": "as §1"}, "MLK2(h)": {"target": "T9, MLK2(h) (Homo sapiens, UniProt Q02779)", "T9 construct": "purchased Eurofins (KinaseProfiler)", "experimental": "as §1"}, "Tie2(R849W)(h)": {"target": "T10, Tie2(R849W)(h) (Homo sapiens, UniProt Q02763, R849W)", "T10 construct": "purchased Eurofins (KinaseProfiler)", "T10 sequence (Q02763 23-1124 R849W)": "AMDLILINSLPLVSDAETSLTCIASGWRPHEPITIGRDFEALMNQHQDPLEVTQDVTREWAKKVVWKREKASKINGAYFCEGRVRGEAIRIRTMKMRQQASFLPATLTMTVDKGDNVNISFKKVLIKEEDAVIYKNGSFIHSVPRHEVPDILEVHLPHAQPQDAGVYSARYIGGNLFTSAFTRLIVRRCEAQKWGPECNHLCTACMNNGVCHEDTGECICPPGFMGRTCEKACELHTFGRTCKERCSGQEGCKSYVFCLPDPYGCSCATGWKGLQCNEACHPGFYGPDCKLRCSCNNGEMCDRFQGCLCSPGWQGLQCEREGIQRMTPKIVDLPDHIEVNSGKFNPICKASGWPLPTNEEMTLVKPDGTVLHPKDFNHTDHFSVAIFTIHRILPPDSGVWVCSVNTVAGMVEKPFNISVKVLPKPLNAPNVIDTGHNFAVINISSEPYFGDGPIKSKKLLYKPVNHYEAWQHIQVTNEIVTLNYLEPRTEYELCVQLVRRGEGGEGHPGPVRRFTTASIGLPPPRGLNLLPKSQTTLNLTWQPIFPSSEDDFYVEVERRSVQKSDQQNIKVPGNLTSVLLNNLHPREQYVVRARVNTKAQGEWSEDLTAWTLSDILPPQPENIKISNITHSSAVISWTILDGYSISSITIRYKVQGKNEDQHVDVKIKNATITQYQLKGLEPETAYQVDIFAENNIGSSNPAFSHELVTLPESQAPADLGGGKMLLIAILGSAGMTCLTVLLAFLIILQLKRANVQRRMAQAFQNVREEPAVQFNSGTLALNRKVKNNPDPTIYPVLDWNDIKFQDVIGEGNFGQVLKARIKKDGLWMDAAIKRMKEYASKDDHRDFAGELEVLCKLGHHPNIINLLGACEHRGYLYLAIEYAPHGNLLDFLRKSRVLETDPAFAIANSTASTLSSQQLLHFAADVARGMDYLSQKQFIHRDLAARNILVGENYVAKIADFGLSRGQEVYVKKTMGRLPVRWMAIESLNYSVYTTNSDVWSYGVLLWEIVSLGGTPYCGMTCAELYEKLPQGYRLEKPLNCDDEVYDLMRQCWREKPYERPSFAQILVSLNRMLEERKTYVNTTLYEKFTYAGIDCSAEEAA", "experimental": "as §1"}, "DRAK2(h)": {"target": "T11, DRAK2(h) (Homo sapiens, UniProt O94768)", "T11 construct": "purchased Eurofins (KinaseProfiler)", "T11 sequence (O94768 1-372)": "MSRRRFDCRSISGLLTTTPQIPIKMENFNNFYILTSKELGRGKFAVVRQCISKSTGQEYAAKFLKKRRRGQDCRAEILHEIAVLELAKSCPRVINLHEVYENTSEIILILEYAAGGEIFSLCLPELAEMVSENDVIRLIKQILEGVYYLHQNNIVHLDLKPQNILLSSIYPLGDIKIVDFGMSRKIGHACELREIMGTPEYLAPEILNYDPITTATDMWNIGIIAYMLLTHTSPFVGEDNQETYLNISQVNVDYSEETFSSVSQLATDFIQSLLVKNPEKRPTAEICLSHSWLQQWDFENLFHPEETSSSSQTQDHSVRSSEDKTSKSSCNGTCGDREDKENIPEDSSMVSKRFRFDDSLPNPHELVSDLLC", "experimental": "as §1"}, "CaMKK2(h)": {"target": "T12, CaMKK2(h) (Homo sapiens, UniProt Q96RR4)", "T12 construct": "purchased Eurofins (KinaseProfiler)", "experimental": "as §1"}, "Cdc7/cyclinB1(h)": {"target": "T13, Cdc7/cyclinB1(h) (Homo sapiens, UniProt O00311)", "T13 construct": "purchased Eurofins (KinaseProfiler)", "experimental": "as §1"}, "NEK2(h)": {"target": "T14, NEK2(h) (Homo sapiens, UniProt P51955)", "T14 construct": "purchased Eurofins (KinaseProfiler)", "T14 sequence (P51955 1-445)": "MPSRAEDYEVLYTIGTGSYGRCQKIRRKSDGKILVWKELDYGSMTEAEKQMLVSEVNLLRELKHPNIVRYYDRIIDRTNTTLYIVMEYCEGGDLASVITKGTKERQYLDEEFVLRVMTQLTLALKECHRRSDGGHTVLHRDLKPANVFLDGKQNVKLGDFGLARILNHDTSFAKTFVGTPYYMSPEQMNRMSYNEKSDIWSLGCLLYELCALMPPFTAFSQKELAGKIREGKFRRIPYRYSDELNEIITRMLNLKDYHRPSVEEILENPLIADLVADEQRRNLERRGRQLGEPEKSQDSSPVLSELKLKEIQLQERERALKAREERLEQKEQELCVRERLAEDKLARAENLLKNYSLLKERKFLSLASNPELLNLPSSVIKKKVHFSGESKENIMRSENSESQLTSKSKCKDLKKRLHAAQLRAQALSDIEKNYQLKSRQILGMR", "experimental": "as §1"}}, "data": [{"molecule": "COc1cc(OC)c(Cl)c(-c2ccc3c(NC(=O)c4ccc(N5CCNC(C)(C)C5)cc4)n[nH]c3n2)c1Cl", "note": "[3D185]", "values": [{"measurement": "inhibition at 0.01 µM", "setting": "TSSK4(h); 10 nM", "result": -6, "unit": "%"}, {"measurement": "inhibition at 0.1 µM", "setting": "TSSK4(h); 100 nM", "result": -10, "unit": "%"}, {"measurement": "inhibition at 1 µM", "setting": "TSSK4(h); 1000 nM", "result": -9, "unit": "%"}, {"measurement": "inhibition at 0.01 µM", "setting": "HIPK1(h); 10 nM", "result": -3, "unit": "%"}, {"measurement": "inhibition at 0.1 µM", "setting": "HIPK1(h); 100 nM", "result": 4, "unit": "%"}, {"measurement": "inhibition at 1 µM", "setting": "HIPK1(h); 1000 nM", "result": 10, "unit": "%"}, {"measurement": "inhibition at 0.01 µM", "setting": "NDR2(h); 10 nM", "result": 2, "unit": "%"}, {"measurement": "inhibition at 0.1 µM", "setting": "NDR2(h); 100 nM", "result": -8, "unit": "%"}, {"measurement": "inhibition at 1 µM", "setting": "NDR2(h); 1000 nM", "result": 1, "unit": "%"}, {"measurement": "inhibition at 0.01 µM", "setting": "Pim-2(h); 10 nM", "result": 11, "unit": "%"}, {"measurement": "inhibition at 0.1 µM", "setting": "Pim-2(h); 100 nM", "result": 3, "unit": "%"}, {"measurement": "inhibition at 1 µM", "setting": "Pim-2(h); 1000 nM", "result": 6, "unit": "%"}, {"measurement": "inhibition at 0.01 µM", "setting": "Lck(h); 10 nM", "result": 22, "unit": "%"}, {"measurement": "inhibition at 0.1 µM", "setting": "Lck(h); 100 nM", "result": 60, "unit": "%"}, {"measurement": "inhibition at 1 µM", "setting": "Lck(h); 1000 nM", "result": 94, "unit": "%"}, {"measurement": "inhibition at 0.01 µM", "setting": "GRK5(h); 10 nM", "result": -1, "unit": "%"}, {"measurement": "inhibition at 0.1 µM", "setting": "GRK5(h); 100 nM", "result": -9, "unit": "%"}, {"measurement": "inhibition at 1 µM", "setting": "GRK5(h); 1000 nM", "result": 3, "unit": "%"}, {"measurement": "inhibition at 0.01 µM", "setting": "PKBγ(h); 10 nM", "result": 4, "unit": "%"}, {"measurement": "inhibition at 0.1 µM", "setting": "PKBγ(h); 100 nM", "result": 12, "unit": "%"}, {"measurement": "inhibition at 1 µM", "setting": "PKBγ(h); 1000 nM", "result": 20, "unit": "%"}, {"measurement": "inhibition at 0.01 µM", "setting": "DYRK1B(h); 10 nM", "result": 12, "unit": "%"}, {"measurement": "inhibition at 0.1 µM", "setting": "DYRK1B(h); 100 nM", "result": 3, "unit": "%"}, {"measurement": "inhibition at 1 µM", "setting": "DYRK1B(h); 1000 nM", "result": 3, "unit": "%"}, {"measurement": "inhibition at 0.01 µM", "setting": "MLK2(h); 10 nM", "result": 4, "unit": "%"}, {"measurement": "inhibition at 0.1 µM", "setting": "MLK2(h); 100 nM", "result": 2, "unit": "%"}, {"measurement": "inhibition at 1 µM", "setting": "MLK2(h); 1000 nM", "result": 24, "unit": "%"}, {"measurement": "inhibition at 0.01 µM", "setting": "Tie2(R849W)(h); 10 nM", "result": -6, "unit": "%"}, {"measurement": "inhibition at 0.1 µM", "setting": "Tie2(R849W)(h); 100 nM", "result": 39, "unit": "%"}, {"measurement": "inhibition at 1 µM", "setting": "Tie2(R849W)(h); 1000 nM", "result": 86, "unit": "%"}, {"measurement": "inhibition at 0.01 µM", "setting": "DRAK2(h); 10 nM", "result": -5, "unit": "%"}, {"measurement": "inhibition at 0.1 µM", "setting": "DRAK2(h); 100 nM", "result": -13, "unit": "%"}, {"measurement": "inhibition at 1 µM", "setting": "DRAK2(h); 1000 nM", "result": 3, "unit": "%"}, {"measurement": "inhibition at 0.01 µM", "setting": "CaMKK2(h); 10 nM", "result": -4, "unit": "%"}, {"measurement": "inhibition at 0.1 µM", "setting": "CaMKK2(h); 100 nM", "result": -22, "unit": "%"}, {"measurement": "inhibition at 1 µM", "setting": "CaMKK2(h); 1000 nM", "result": 4, "unit": "%"}, {"measurement": "inhibition at 0.01 µM", "setting": "Cdc7/cyclinB1(h); 10 nM", "result": 5, "unit": "%"}, {"measurement": "inhibition at 0.1 µM", "setting": "Cdc7/cyclinB1(h); 100 nM", "result": -5, "unit": "%"}, {"measurement": "inhibition at 1 µM", "setting": "Cdc7/cyclinB1(h); 1000 nM", "result": 8, "unit": "%"}, {"measurement": "inhibition at 0.01 µM", "setting": "NEK2(h); 10 nM", "result": 15, "unit": "%"}, {"measurement": "inhibition at 0.1 µM", "setting": "NEK2(h); 100 nM", "result": 67, "unit": "%"}, {"measurement": "inhibition at 1 µM", "setting": "NEK2(h); 1000 nM", "result": 94, "unit": "%"}]}]}
